Test results reported in US11590091B2, “Fixed dose composition of paracetamol: amitriptyline and method for the treatment of mixed cancer pain” (CENTRO DE INVESTIGACIÓN Y DESARROLLO DE MEDICAMENTOS CIDEM, priority 2018, dated 2023).
Read-outs that look alike come from different tables or passages of the source.

What was measured:
[1] = test system: licking/biting behavior after injection of 2.5% formalin in the plantar surface of the rat's paw; experiment: Formalin test (persistent pain model), licking/biting behavior, with isobolographic analysis; type: in vivo, rat (Sprague Dawley); details: for percentage of inhibition of phase II (% antinociception) / ED30 for the inhibition of phase II (experimental): single dose; for percentage of inhibition of phase II (% antinociception): 2.5% formalin; for Oral administration ED30: formalin test, dose producing 30% reduction of control response, mean ± SD of the estimate; for ED30 for the inhibition of phase II (experimental): oral, phase II of formalin test, unit not given
Excerpt: In the present invention referred to the combination paracetamol:amitriptyline, the pharmacodynamic rationality was based on the knowledge of the actions of both drugs on the nociceptive pathways considering the multiple sites and mechanisms operating on specific targets, as well as their adverse effects and pharmacokinetic variables. […] This responds to the need for the use of integral systems in which peripheral activity, spinal transmission, modulating systems and suprasegmental systems of the active global network that leads to the perception of pain can interact (Raffa, R B et al., 2010. J Pain 11: 701-709). The experiments were designed in young rats (8-10 weeks, Sprague Dawley, males, 168-240 g, CENPALAB, Havana, Cuba) and divided into several groups n=6-7 each, which received increasing doses of both drugs independent and combinations, to evaluate the effect as a percentage (%) of antinociception at single doses in the formalin test compared to the vehicle-treated group. This test is considered a standard persistent pain model for the study of animal nociception, widely used (Okuda, K. et al., 2001. Pain 92: 107-15). A biphasic nociceptive behavior has been described in this test, the first phase or nociceptive is interpreted as a consequence of the direct activation of the peripheral endings of the nociceptors by the chemical irritant. While the second, tonic or late phase is interpreted as the result of the acute inflammatory response, as well as the peripheral and central sensitization produced by the sustained activation of C fibers (Coderre, T J et al., 1990. Brain Res. 535: 155-8). This phase mimics the changes in synaptic plasticity that occur during persistent pain that could progress to chronicity, which is why it received the greatest attention in our experiments. The period between the two phases of the response is identified as a phase of latency in which the activity diminishes or practically ceases, this effect being attributed to the participation of the mechanisms of central endogenous pain modulation (Dubuisson, D. and, Dennis, S G 1977. Pain 4: 161-74; Omote, K. et al., 1998. Brain Res. 814: 194-8). The time course of the antinociceptive response to individual drugs and combinations was constructed by mapping the mean time of the licking/biting as a function of the time of each phase. These values were transformed into percentage of antinociception that express the percentage of inhibition of the behavior with respect to the control of the particular phase according to the formula: % antinociception=((x−x1)/x)*100. Where X=average time of licking/bite of the control group treated with vehicle, X1=time of licking/biting of each animal of the experimental group (for phase I licking time in 5 minutes, for phase II average of the time of 15 to 45 minutes per animal). In the case that X1 was greater than X, a value of 0 was assigned to % antinociception. A value close to 0% means that the behavior is similar to that of the control group and a value close to 100% means that there was no nocidefensive behavior (Argelles, C. F. et al., 2002. Anesthesiology 96: 921-5). The antihyperalgesic effect of amitriptyline has been recognized in neural damage conditions. […] One of the proposals to explain these discrepancies has been the ability of amitriptyline to increase serotonergic signaling, which has multiple subtypes of receptors, some low and others with high affinity, with heterogeneous and even opposite actions distributed at different levels of the nociceptive pathways. […] However, 5-HT2A and 5-HT3, 5-HT4 and 5-HT7 localized pre-synaptically facilitate it. […] As a consequence, the most integrated licking/biting behavior was recorded and doses of amitriptyline (0.1, 1, 3, 10 mg/kg, p.o., AMT) were used for the dose-response curve study (FIG. 1). […]

[2] = test system: mechanical allodynia in the ipsilateral hindpaw of CCI rats; experiment: Sciatic nerve chronic constriction injury (CCI) model, mechanical allodynia (von Frey filaments), with isobolographic analysis; type: in vivo, rat (Sprague Dawley); details: for MPE, mechanical allodynia: day 14 post-CCI; for ED50: Rattus norvegicus
Excerpt: (§1) The favorable results at a single dose in phase II of this algesymmetric test provide evidence that allows us to move towards a neuropathic pain model to study the possible combination at repeated doses. […] The CCI model has a high sensitivity (88%) for the prediction of efficacy in controlled clinical trials (Kontinen, V K and Meert, T F 2003. In: Dostrovsky, J O, Carr, D B, Koltzenburg, M. editors. the 10th World Congress on Pain, Seattle: IASP Press, p. 489-98). Once the model was reproduced, the threshold of removal of the injured hindpaw was measured by the stimulation with the von Frey filaments (mechanical allodynia) and by the stimulation with an electronic von Frey (mechanical hypernociception). The measurements were performed under baseline conditions and at 7 days post-CCI (hyperalgesic peak in the model), at which time the experimental groups were conformed (n=6-7 per group) to proceed with the dose-response curve study of amitriptyline. In this way, establish the ED30 or ED50 depending on the % of maximum possible effect (MPE) produced by the drug to reduce each of the sensory symptoms of neuropathic pain reproduced by the model (Jensen, T S and Baron, R. 2003. Pain 102: 1-8). Gabapentin, a common drug in its treatment, was used as a reference. CCI-vehicle group (distilled water 10 mL/kg, p.o.), amitriptyline groups (0.5, 1.5, 3, 10 mg/kg, p.o., AMT), gabapentin group (50 mg/kg, p.o., GBP); Sham CCI Group (distilled water 10 mL/kg, p.o.) The daily supply was given at repeated doses for 7 days until 14 days post-CCI, at which time another evaluation of the variables was performed. […] The experimental groups were formed for the dose-response curve study of paracetamol: CCI-vehicle group (distilled water 10 mL/kg, p.o.), Paracetamol groups (25, 50, 100, 200 mg/kg, p.o., P), Gabapentin group (50 mg/kg, p.o., GBP), CCI Sham Group (distilled water 10 mL/kg, p.o.). These doses of paracetamol have not been associated with liver or kidney damage in rats. […] To execute the dose-response curve mapping, the withdrawal thresholds after the treatments were converted into % of MPE. [Mechanical allodynia: MPE %=(post-treatment threshold−pre-treatment threshold)/(15 g-pre-treatment threshold)×100; Mechanical hypernociception: MPE % (Δ g post-treatment−Δ g pre-treatment)/50−Δ g pre-treatment)×100]. Subsequently, the same design was executed with the four doses of the combination calculated from the theoretical effective dose of each drug, this was calculated for each variable depending on the ED50 or ED30 according to the drug's capacity to obtain 50% or more of MPE that is 100% assumed as the total suppression of mechanical allodynia and mechanical hypernociception induced by CCI. […] In addition, concerning to the hypernociception intensity, the MPE values: 0.5 mg/kg=2.55%, 1.5 mg/kg=16.07% (p<0.05), 3 mg/kg=35.43% (p<0.001), 10 mg/kg=44.95% (p<0.001) vs GBP 50 mg/kg=63.47% (p<0.001), ED30=3.1032 (FIG. 8B). Amitriptyline inhibited both alterations of nociceptive processing but the potency of its effect was in the following order: mechanical allodynia>mechanical hypernociception. In neuropathic pain models there are controversies regarding the observation of the mechanical antiallodynic effect of amitriptyline. […] The result was similar in the model of spared neural injury (SNI), instead it reversed the responses to stimuli induced by chemical irritants induced by ATP and capsaicin, stimuli that are transmitted by the C fibers that express P2X and TRPV1 receptors and that are also involved in the transmission of thermal stimuli.

[3] = test system: mechanical hypernociception in the ipsilateral hindpaw of CCI rats; experiment: Sciatic nerve chronic constriction injury (CCI) model, mechanical hypernociception (electronic von Frey); type: in vivo, rat (Sprague Dawley); details: for MPE, intensity of mechanical hypernociception: day 14 post-CCI; for ED30, mechanical hypernociception: oral repeated doses, CCI rats, unit not given
Excerpt: as §1

[4] = Behavioral safety pharmacological tests (rota-rod, tone, posture, righting reflex, general state); type: in vivo, rat (Sprague Dawley); details: repeated minor doses (0.5-10 mg/kg p.o.) in the CCI model
Experimental: The rotating rod or rota-rod test was executed. The apparatus consists of a bar with a diameter of 2.5 cm divided into 4 compartments. The bar rotated at a constant speed of 22 rpm and the time it took for the animals to fall from the bar was evaluated. The animals were evaluated 1 h after the supply. The cut-off time used was 60 seconds. In addition, the tone, posture, righting reflex, corneal, vital signs and general state of the animal were explored from 30 minutes to 3 hours post-administration of the drugs separately and the combination. The corneal and tympanic reflex were explored by the tip of a thin paper to stimulate the cornea or auditory canal and the rapid response of opening and closing of the eyes or the mobilization of the ears in normal animals was observed. The evaluation of the posture and the righting reflex was based on the scale of Devor and Zalkind. Scale for posture: 0=normal posture, grooming supported on its hind legs; 1=moderate atony and ataxia, supports its weight, but can not rest on its hind legs; 2=supports its weight, but ataxia is severe; 3=maintains muscle tone, but can not support its weight, only small movements of intention; 4=atony, flaccidity, totally immobilized, no efforts to mobilize.

[5] = test system: CCI-induced Wallerian degeneration-related changes in rat sciatic nerve; experiment: Histopathological study of sciatic nerve sections (Wallerian degeneration) in CCI rats; details: GBP as positive control, 14 days post-CCI
[6] = 0.5 mg/kg p.o. daily for 7 days
[7] = 1.5 mg/kg p.o. daily for 7 days
[8] = po, CCI model, dose producing 50% reduction of control response, table values mean ± SD of the estimate, read-out: Oral administration ED50 (antiallodynic, experimental)
[9] = oral repeated doses, CCI rats, unit inferred, read-out: ED50, mechanical allodynia
[10] = 100 mg/kg p.o. daily for 7 days
[11] = 200 mg/kg p.o. daily for 7 days

Question: Which “percentage of inhibition of phase II (% antinociception)” value ([1]; 0.1 mg/kg p.o., phase II (15-45 min)) does the source give for `CN(C)CCC=C1c2ccccc2CCc2ccccc21` [Amitriptyline, amitriptyline] here?
Answer: Its value is −11.38%.

Question: What about the “percentage of inhibition of phase II (% antinociception)” value ([1]; 1 mg/kg p.o., phase II) of the same compound?
Answer: The value was 57.35%.

Question: What about the “percentage of inhibition of phase II (% antinociception)” value ([1]; 3 mg/kg p.o., phase II) of the same compound?
Answer: The value was 55.56%.

Question: And the “percentage of inhibition of phase II (% antinociception)” value ([1]; 10 mg/kg p.o., phase II)?
Answer: The value was 62.24%.

Question: And the “inhibitory effect on phases of the formalin test” value ([1]; doses 0.1, 1, 3, 10 mg/kg p.o.)?
Answer: Its value is “significant inhibitory effect was observed exclusively on phase II”.

Question: And the “licking/biting response in both phases” value ([1]; doses of 20, 25, 50 and 100 mg/kg)?
Answer: Its value is “a significant dose-dependent inhibitory response pattern was not observed”.

Question: What about the “Oral administration ED30” value [1] of the same compound?
Answer: Its value is 0.66 ± 0.41 mg/kg.

Question: And the “ED30 for the inhibition of phase II (experimental)” value [1]?
Answer: Its value is 0.6677.

Question: What about the “MPE, mechanical allodynia” value [2, 6] of the same compound?
Answer: Its value is 0.96%.

Question: And the “MPE, mechanical allodynia” value [2, 7]?
Answer: Its value is 1.31%.

Question: And the “MPE, mechanical allodynia” value ([2]; 3 mg/kg p.o. daily for 7 days)?
Answer: The value was 58.75%.

Question: And the “MPE, mechanical allodynia” value ([2]; 10 mg/kg p.o. daily for 7 days)?
Answer: The value was 65.97%.

Question: And the ED50 [2, 8]?
Answer: Its ED50 is 4.54 ± 2.28 mg/kg.

Question: What about the ED50 [2, 9] of the same compound?
Answer: Its ED50 is 4.54 mg/kg.

Question: What about the “withdrawal thresholds of the damaged paw to von Frey filaments stimulation” value ([2]; doses of 3 and 10 mg/kg p.o., repeated 7 days (p<0.05)) of the same compound?
Answer: Its value is “increased the withdrawal thresholds”.

Question: And the “MPE, intensity of mechanical hypernociception” value (“MPE, intensity” below) [3, 6]?
Answer: The value was 2.55%.

Question: What about the “MPE, intensity” value [3, 7] of the same compound?
Answer: The value was 16.07%.

Question: And the “MPE, intensity” value ([3]; 3 mg/kg p.o. daily for 7 days)?
Answer: The value was 35.43%.

Question: And the “MPE, intensity” value ([3]; 10 mg/kg p.o. daily for 7 days)?
Answer: The value was 44.95%.

Question: And the “intensity of mechanical hypernociception” value ([3]; dose of 1.5 (p<0.01), 3 and 10 mg/kg (p<0.001) p.o., repeated 7 days)?
Answer: Its value is “significantly reduced the intensity of mechanical hypernociception”.

Question: And the “ED30, mechanical hypernociception” value [3]?
Answer: Its value is 3.1032.

Question: What about the “signs of sedation or catalepsy” value [4] of the same compound?
Answer: The value was “no signs of sedation or catalepsy”.

Question: Which results are given for `CC(=O)Nc1ccc(O)cc1` [Paracetamol, paracetamol]?
Answer: percentage of inhibition of phase II (% antinociception) ([1]; 50 mg/kg p.o., phase II): 38.08%; percentage of inhibition of phase II (% antinociception) ([1]; 100 mg/kg p.o., phase II): 65.73%; percentage of inhibition of phase II (% antinociception) ([1]; 200 mg/kg p.o., phase II): 74.24%; effect on phase I of the formalin test ([1]; 300 mg/kg p.o. (printed 'the dose higher than 300 mg/kg')): significantly reduced phase I; percentage of inhibition of phase II (% antinociception) ([1]; 300 mg/kg p.o., phase II): 87.78%; effect on phase II of the formalin test ([1]; all doses used: 50, 100, 200, 300 mg/kg p.o.): significantly reduced phase II; Oral administration ED30 [1]: 32.35 ± 7.85 mg/kg; ED30 for the inhibition of phase II (experimental) [1]: 32.3578; MPE, mechanical allodynia ([2]; 25 mg/kg p.o. daily for 7 days): 25.65%; MPE, mechanical allodynia ([2]; 50 mg/kg p.o. daily for 7 days): 60.96%; MPE, mechanical allodynia [2, 10]: 75.49%; MPE, mechanical allodynia [2, 11]: 75.45%; ED50 [2, 8]: 47.5 ± 14.1 mg/kg; ED50 [2, 9]: 47.5 mg/kg; antiallodynic effect ([2]; doses 25, 50, 100, 200 mg/kg p.o., repeated 7 days (p<0.05)): significant antiallodynic effect from doses of 50 mg/kg; MPE, intensity of mechanical hypernociception ([3]; 25 mg/kg p.o. daily for 7 days): 31.79%; MPE, intensity of mechanical hypernociception ([3]; 50 mg/kg p.o. daily for 7 days): 35.05%; MPE, intensity of mechanical hypernociception [3, 10]: 42.42%; MPE, intensity of mechanical hypernociception [3, 11]: 48.37%; mechanical antihypernociceptive effect ([3]; 25, 50, 100 (p<0.01) and 200 mg/kg (p<0.001) p.o., similar to GBP): mechanical antihypernociceptive effect in a dose-dependent manner; efficacy to reduce the intensity of mechanical hypernociception, 300 mg/kg versus 200 mg/kg ([3]; doses of 300 mg/kg compared with 200 mg/kg): less efficacy; ED30, mechanical hypernociception [3]: 22.5725

Question: Which “MPE, mechanical allodynia” value ([2]; 50 mg/kg p.o. daily for 7 days) does the source give for `NCC1(CC(=O)O)CCCCC1` [GBP, gabapentin] here?
Answer: Its value is 60.66%.

Question: And the “MPE, intensity” value ([3]; 50 mg/kg p.o. daily for 7 days)?
Answer: The value was 63.47%.

Question: What about the “Wallerian degeneration alterations in sciatic nerve (qualitative)” value [5] of the same compound?
Answer: Its value is “show a decrease in these alterations”.
